Assay results as given in patent US20220112187A1, “PYRAZOLOPYRIDINE AMINE COMPOUNDS FOR THE TREATMENT OF AUTOIMMUNE DISEASE” (Hoffmann-La Roche Inc., priority 2018, published 2022).

target: T1, human TLR8 (Homo sapiens, UniProt Q9NR97); experiment: HEK293-Blue-hTLR-8 cells assay (SEAP reporter, R848 stimulation); format: cell-based; conditions: HEK293-Blue-hTLR8 cells, R848 ligand, 20 hrs incubation
T1 sequence (Q9NR97 27-1041): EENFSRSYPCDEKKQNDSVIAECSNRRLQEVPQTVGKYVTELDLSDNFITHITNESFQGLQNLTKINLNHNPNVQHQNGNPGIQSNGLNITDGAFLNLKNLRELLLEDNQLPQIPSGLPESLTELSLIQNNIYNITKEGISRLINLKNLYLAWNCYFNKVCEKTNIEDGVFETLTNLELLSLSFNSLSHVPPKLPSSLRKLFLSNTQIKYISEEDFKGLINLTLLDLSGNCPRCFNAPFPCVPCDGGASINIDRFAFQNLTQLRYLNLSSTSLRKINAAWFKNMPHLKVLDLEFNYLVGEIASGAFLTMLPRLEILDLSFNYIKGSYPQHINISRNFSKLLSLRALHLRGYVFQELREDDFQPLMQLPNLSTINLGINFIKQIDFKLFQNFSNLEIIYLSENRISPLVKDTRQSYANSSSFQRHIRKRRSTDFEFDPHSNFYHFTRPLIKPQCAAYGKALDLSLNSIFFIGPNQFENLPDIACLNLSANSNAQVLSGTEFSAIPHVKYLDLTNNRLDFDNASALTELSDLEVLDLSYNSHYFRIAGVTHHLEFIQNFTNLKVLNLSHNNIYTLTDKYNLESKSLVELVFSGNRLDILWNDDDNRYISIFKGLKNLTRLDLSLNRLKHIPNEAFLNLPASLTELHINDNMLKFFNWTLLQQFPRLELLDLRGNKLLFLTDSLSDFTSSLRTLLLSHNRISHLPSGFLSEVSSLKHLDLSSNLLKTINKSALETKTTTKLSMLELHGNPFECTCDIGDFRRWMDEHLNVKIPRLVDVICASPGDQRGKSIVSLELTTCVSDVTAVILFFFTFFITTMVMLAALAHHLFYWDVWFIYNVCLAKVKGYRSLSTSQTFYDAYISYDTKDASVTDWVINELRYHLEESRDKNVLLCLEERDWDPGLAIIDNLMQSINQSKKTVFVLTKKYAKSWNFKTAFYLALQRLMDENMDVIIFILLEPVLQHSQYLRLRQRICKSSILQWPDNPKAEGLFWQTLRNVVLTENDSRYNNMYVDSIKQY
Excerpt: A stable HEK293-Blue-hTLR-8 cell line was purchased from InvivoGen (Cat. #: hkb-htlr8, San Diego, Calif., USA). These cells were originally designed for studying the stimulation of human TLR8 by monitoring the activation of NF-κB. A SEAP (secreted embryonic alkaline phosphatase) reporter gene was placed under the control of the IFN-β minimal promoter fused to five NF-κB and AP-1-binding sites. The SEAP was induced by activating NF-κB and AP-1 via stimulating HEK-Blue hTLR8 cells with TLR8 ligands. Therefore the reporter expression was declined by TLR8 antagonist under the stimulation of a ligand, such as R848, for incubation of 20 hrs. The cell culture supernatant SEAP reporter activity was determined using QUANTI-Blue™ kit (Cat. #: rep-qb1, Invivogen, San Diego, Ca, USA) at a wavelength of 640 nm, a detection medium that turns purple or blue in the presence of alkaline phosphatase.
HEK293-Blue-hTLR8 cells were incubated at a density of 250,000˜450,000 cells/mL in a volume of 170 μL in a 96-well plate in Dulbecco's Modified Eagle's medium (DMEM) containing 4.5 g/L glucose, 50 U/mL penicillin, […], […], 2 mM L-glutamine, 10% (v/v) heat-inactivated fetal bovine serum with addition of 20 μL test compound in a serial dilution in the presence of final DMSO at 1% and 10 μL of 60 uM R848 in above DMEM, perform incubation under 37° C. in a CO2 incubator for 20 hrs. Then 20 μL of the supernatant from each well was incubated with 180 μL Quanti-blue substrate solution at 37° C. for 2 hrs and the absorbance was read at 620˜655 nm using a spectrophotometer. The signalling pathway that TLR8 activation leads to downstream NF-κB activation has been widely accepted, and therefore similar reporter assay was modified for evaluating TLR8 antagonist.

Compared with C[C@@H]1CN(c2ccc(C#N)n3nccc23)C[C@H](CN2CCN(C)CC2)O1 [Example 15, 4-[(2R,6S)-2-methyl-6-[(4-methylpiperazin-1-yl)methyl]morpholin-4-yl]pyrazolo[1,5-a]pyridine-7-carbonitrile], C[C@@H]1CN(c2ccc(C#N)n3nccc23)C[C@H](CN2CCC(N)CC2)O1 [Example 17, 4-[(2S,6R)-2-[(4-amino-1-piperidyl)methyl]-6-methyl-morpholin-4-yl]pyrazolo[1,5-a]pyridine-7-carbonitrile] is 3.1-fold lower in IC50: 180 nM for the first, 58 nM for the second. The second is the more potent here.

Compared with C[C@@H]1CN(c2ccc(C#N)n3nccc23)C[C@H](CN2CCC(N3CCCCC3)CC2)O1 [Example 16, 4-[(2R,6S)-2-methyl-6-[[4-(1-piperidyl)-1-piperidyl]methyl]morpholin-4-yl]pyrazolo[1,5-a]pyridine-7-carbonitrile], C[C@@H]1CN(c2ccc(C#N)n3nccc23)C[C@H](CN2CCC3(CCCNC3)CC2)O1 [Example 27, 4-[(2S,6R)-2-(2,9-diazaspiro[5.5]undecan-9-ylmethyl)-6-methyl-morpholin-4-yl]pyrazolo[1,5-a]pyridine-7-carbonitrile] is 10-fold higher in IC50: 19 nM for the first, 190 nM for the second. The first is the more potent here.

Compared with C[C@@H]1CN(c2ccc(C#N)n3nccc23)C[C@H](CN2CCC3(CCNCC3)C2)O1 [Example 18, 4-[(2S,6R)-2-(2,8-diazaspiro[4.5]decan-2-ylmethyl)-6-methyl-morpholin-4-yl]pyrazolo[1,5-a]pyridine-7-carbonitrile], C[C@@H]1CN(c2ccc(C#N)n3nccc23)C[C@H](CN2CC3(CCNCC3)C2)O1 [Example 24, 4-[(2S,6R)-2-(2,7-diazaspiro[3.5]nonan-2-ylmethyl)-6-methyl-morpholin-4-yl]pyrazolo[1,5-a]pyridine-7-carbonitrile] is 1.7-fold higher in IC50: 350 nM for the first, 610 nM for the second.

Going from C[C@@H]1CN(c2ccc(C#N)n3nccc23)C[C@H](CN2CCC3(CCNC3)CC2)O1 [Example 19, 4-[(2S,6R)-2-(2,8-diazaspiro[4.5]decan-8-ylmethyl)-6-methyl-morpholin-4-yl]pyrazolo[1,5-a]pyridine-7-carbonitrile] to C[C@@H]1CN(c2ccc(C#N)n3nccc23)C[C@H](CN2CCC3(CCCNC3)C2)O1 (stereo partly drawn) [Example 25, 4-[(2S,6R)-2-(2,9-diazaspiro[4.5]decan-2-ylmethyl)-6-methyl-morpholin-4-yl]pyrazolo[1,5-a]pyridine-7-carbonitrile], the IC50 falls from 250 nM to 88 nM (2.8-fold).

Going from C[C@@H]1CN(c2ccc(C#N)n3nccc23)C[C@H](CN2CC3(CCNC3)CC2=O)O1 (stereo partly drawn) [Example 20, 4-[(2R,6R)-2-methyl-6-[(3-oxo-2,7-diazaspiro[4.4]nonan-2-yl)methyl]morpholin-4-yl]pyrazolo[1,5-a]pyridine-7-carbonitrile] to C[C@@H]1CN(c2ccc(C#N)n3nccc23)C[C@H](CN2CCC3(CCNC3)C2=O)O1 (stereo partly drawn) [Example 21, 4-[(2R,6R)-2-methyl-6-[(1-oxo-2,7-diazaspiro[4.4]nonan-2-yl)methyl]morpholin-4-yl]pyrazolo[1,5-a]pyridine-7-carbonitrile], the IC50 falls from 610 nM to 39 nM (16-fold). The second is the more potent here.

C[C@@H]1CN(c2ccc(C#N)n3nccc23)C[C@H](CN2CC3CNCC3C2)O1 (stereo partly drawn) [Example 22, 4-[(2S,6R)-2-(2,3,3a,4,6,6a-hexahydro-1H-pyrrolo[3,4-c]pyrrol-5-ylmethyl)-6-methyl-morpholin-4-yl]pyrazolo[1,5-a]pyridine-7-carbonitrile] and CC1CN(C[C@H]2CN(c3ccc(C#N)n4nccc34)C[C@@H](C)O2)CCN1 (stereo partly drawn) [Example 28, 4-[(2R,6S)-2-methyl-6-[(3-methylpiperazin-1-yl)methyl]morpholin-4-yl]pyrazolo[1,5-a]pyridine-7-carbonitrile] are within 1.5-fold of each other in IC50: 69 nM for the first, 65 nM for the second.

With C[C@@H]1CN(c2ccc(C#N)n3nccc23)C[C@H](CN2CCCC3(CCCNC3)C2)O1 (stereo partly drawn) [Example 23, 4-[(2S,6R)-2-(2,8-diazaspiro[5.5]undecan-2-ylmethyl)-6-methyl-morpholin-4-yl]pyrazolo[1,5-a]pyridine-7-carbonitrile] the IC50 was 41 nM.
